In patent US20190282692A1, “SELECTIVE LOCAL INHIBITION OF TNFR1-MEDIATED FUNCTIONS AT THE SITE OF ANTIGEN/ALLERGEN PRESENTATION” (priority 2012, published 2019):
Several values for one entry are separate records, joined by “and”; a condition that tells them apart may be missing. Identical values can stand only once.

What was measured:
[1] = system: CD4+ T cells purified from human peripheral blood; details: cited from earlier work
[2] = system: IL-4 gene transcription; details: read-out: concentration for 50% inhibition of IL-4 gene transcription; cited from earlier work
[3] = system: NF-kappa B translocation; details: read-out: concentration for 50% inhibition of NF-kappa B translocation; cited from earlier work
[4] = system: isolated rat cardiomyocytes; details: cited from earlier work; for reproduction of the effects of in vivo NAC treatment (glutathione repletion, unmasking of TNFR2-mediated effects): 50 μmol/L; for protection against deleterious effects of TNF-alpha on contraction: preincubation 2-3 hours, 50 μM GSM or exogenously added NAC, cardiomyocytes from control rats
[5] = cited from earlier work
[6] = system: purified tonsillar B cells; details: 20 mM NAC; cited from earlier work
[7] = cited from earlier work; remark: listed apart in the source
[8] = 8 days, cited from earlier work
[9] = system: purified peripheral blood T cells; details: cited from earlier work
[10] = system: purified tonsillar B cells; details: dose-dependent, significant with 0.5 mM, maximal with 20 mM NAC, 14 days; cited from earlier work
[11] = system: left ventricle; details: 3-day NAC treatment 120 mg/kg/day, 2-month post-myocardial infarction rats; cited from earlier work
[12] = system: purified peripheral blood T cells; details: 20 mM NAC, Con A 10 μg/ml; cited from earlier work
[13] = system: resting T cells; details: resting T cells from seven donors, 3 day period, NAC 1 mM to 20 mM; cited from earlier work
[14] = 600 mg to 1000 mg NAC three times daily orally, 4 weeks; cited from earlier work
[15] = system: T cells purified from human peripheral blood; details: 20 mM NAC, Con A 2.5 μg/ml, 40 hours; cited from earlier work
[16] = 1800 mg/day oral, one year, added to standard therapy; cited from earlier work
[17] = system: T cells purified from human peripheral blood; details: 10 mM NAC, after two passages; cited from earlier work
[18] = system: TNFR2-mediated activation of NF-kappa B; details: high concentrations; cited from earlier work
[19] = system: TNFR1-mediated activation of NF-kappa B; details: cited from earlier work
[20] = in vivo; cited from earlier work
[21] = system: allergen-induced airways hyper-responsiveness; details: cited from earlier work
[22] = system: late phase asthmatic response to allergen challenge; details: cited from earlier work
[23] = system: TNF; assay type: in vivo, human; details: for side effects of anti-TNF treatment in the patient: one patient with ankylosing spondylitis; for development of allergen-specific sIgG4 during specific immunotherapy: one vespid venom-allergic patient, SIT 2003-2009
Text: Case report from the Allergy Center of the Technical University of Munich (TUM), Germany. A patient (at the first visit in July 2003) with systemic vespid venom allergy was under anti-TNF therapy with the soluble TNF receptor etanercept (Enbrel®) for ankolysing spondylitis since July 2002 (see FIG. 9). In July/2003, the patient experienced a mild to moderate anaphylactic reaction (grade 1-2 according to Ring and Messmer) with generalized urticaria, subjective breathing problems and dizziness after a wasp sting.
No sIgE was detectable against Ves v 2 and Ves v 3.
Similar results were also obtained in the ELISA analysis, where sIgG4 levels were detectable already in 2003 before SIT mainly against Ves v 1 and Ves v 5, which decreased slightly over time during SIT.
Discussion. […] Even amongst the group of SIT therapy failures/non-responders, we routinely observed an increase of sIgG4 levels to at least one allergen. Thus, this patient was the first and only one ever without any increase in sIgG4 to any of the vespid venom allergens. […] To our knowledge this was the only patient worldwide that received immunotherapy under anti-TNF inhibition treatment. Since there are several lines of evidence that TNFR2-mediated signaling is essential for the induction of tolerance, inhibition of TNFR2 appears to be responsible for the inhibitory effect of anti-TNF-alpha therapy on the efficacy of specific immunotherapy.

[24] = biological target: T1, TNF-alpha (Mus musculus, UniProt P06804); details: without inhibiting Teff activation; cited from earlier work
T1 construct: host or cells: mouse, in vivo
T1 sequence (P06804 80-235 limits assumed): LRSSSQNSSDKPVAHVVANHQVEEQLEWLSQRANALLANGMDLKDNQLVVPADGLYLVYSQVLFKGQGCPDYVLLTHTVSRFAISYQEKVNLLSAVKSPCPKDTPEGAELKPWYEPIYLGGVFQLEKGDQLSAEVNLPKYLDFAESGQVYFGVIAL

[25] = system: C3 convertase; details: cited from earlier work

CC(=O)Oc1ccccc1C(=O)O [ASA, acetylsalicylic acid]
inhibition of IL-4 secretion ([1]; 1 mM ASA): 47%
production of IFNγ ([1]; ASA 0.1 mM-3 mM): did not affect
production of IL-2 ([1]; ASA 0.1 mM-3 mM): did not affect
production of IL-13 ([1]; ASA 0.1 mM-3 mM): did not affect
IC50 [2]: ~1000 µM
IC50 [3]: ~3000 µM

N[C@@H](CCC(=O)N[C@@H](CS)C(=O)NCC(=O)O)C(=O)O [GSH, glutathione]
reproduction of the effects of in vivo NAC treatment ([4]; incubation 2-3 hours, 10 mmol/L): could not reproduce the effects of in vivo NAC treatment

CSC[C@H](NC(=O)CC[C@H](N)C(=O)O)C(=O)NCC(=O)O [GSM, S-Methylglutathione]
reproduction of the effects of in vivo NAC treatment (glutathione repletion, unmasking of TNFR2-mediated effects) ([4]; incubation 2-3 hours): reproduce the effects of in vivo NAC treatment
protection against deleterious effects of TNF-alpha on contraction [4]: protected against the deleterious effects of TNF-alpha on contraction
solubility in water [5]: 2.61 g/liter and 8.1 mM

CC(=O)N[C@@H](CS)C(=O)O [NAC, N-acetyl-L-cysteine]
increase in B cell proliferation [6]: at least 5 fold
median tmax ([7]; human, in vivo): 1.0 h
highest non-toxic dose ([7]; in most of the subjects): 800 mg/m^2/day
plasma t1/2 ([7]; monoexponential plasma decay): 2.4 h
decrease of ovalbumin-specific IgE ([8]; drinking water 0.5 g/liter NAC): ~30%
decrease of ovalbumin-specific IgG1 ([8]; drinking water 0.5 g/liter NAC): ~30%
synthesis of other Ig isotypes ([8]; drinking water 1 g NAC/liter): not significantly affected
IgE and IgG1 antibody responses to ovalbumin ([8]; water containing 0.5-2.0 g/l NAC, 1 μg ovalbumin on aluminum hydroxide i.p.): decreased
reproduction of the effects of in vivo NAC treatment (glutathione repletion, unmasking of TNFR2-mediated effects) ([4]; incubation 2-3 hours): could not reproduce the effects of in vivo NAC treatment
protection against deleterious effects of TNF-alpha on contraction [4]: not protected
IFNγ production by T cells ([9]; 0.5-20 mM NAC): not affected
IL-5 production by T cells ([9]; 0.5-20 mM NAC): not affected
IL-4 production by T cells ([9]; maximal at 20 mM NAC): decreased in a dose-dependent manner
IL-2 production by T cells ([9]; up to 5 mM NAC): enhanced
IgE production by B cells [10]: decreased
IgG4 production by B cells [10]: decreased
GSH content of the left ventricle, % of control level in sham rats [11]: 75%
increase in T cell proliferation [12]: approximately 4 fold
cytotoxicity [13]: nontoxic
GSH level in blood neutrophils, airway neutrophil count and elastase activity [14]: effective in augmenting the GSH level in blood neutrophils and decreasing the airway neutrophil count and elastase activity
enhancement of IL-2 production by T cells [15]: approximately 1.5 fold
primary end points including vital capacity [16]: better
stimulation of growth of peripheral blood T cell cultures [17]: 4-6 fold

O=C([O-])c1ccccc1O.[Na+] [SA, sodium salicylate]
inhibition of TNFR2-mediated activation of NF-kappa B [18]: but not TNFR2-mediated activation of NF-kappa B
salicylate dose required for inhibition of TNFR1-mediated activation of NF-kappa B [19]: 10 to 20 mM

O=C(O)c1ccccc1O [salicylate]
level at which tinnitus may occasionally occur [20]: ≥ 95 µg/mL

IL-4 (R121D/Y124D)
cutaneous wheal response and circulating allergen-specific IgE ([21]; subcutaneous administration for 6 weeks or more): reduced
allergen-induced airways hyper-responsiveness ([21]; subcutaneously or via nebulization): protect allergic cynomolgus monkeys from allergen-induced airways hyper-responsiveness
course of late asthmatic response after experimental allergen challenge ([22]; asthmatic patients): positively affect
adverse events ([22]; subcutaneous injection up to 30 mg for up to 13 weeks or inhalation up to 60 mg for up to 4 weeks): few adverse events

etanercept
side effects of anti-TNF treatment in the patient [23]: increasing iritis symptoms
development of allergen-specific sIgG4 during specific immunotherapy [23]: interferes with the development of allergen-specific sIgG4
Teff-mediated Treg boost [24]: significantly reduced the Teff-mediated Treg boost

hC3: human complement component C3
half-life of C3 convertase [25]: 1.5 min

infliximab
side effects of anti-TNF treatment in the patient [23]: without major side effects
development of allergen-specific sIgG4 during specific immunotherapy [23]: interferes with the development of allergen-specific sIgG4
